How the values were obtained:
Assay type in all cases: in vivo
[1] = tested on: Cowpea aphid (Aphis craccivora); assay: B.3 Cowpea aphid leaf disk test; conditions: foliar, 120 h
Protocol: If not otherwise specified, the test solutions are prepared as follows:
The active compound is dissolved at the desired concentration in a mixture of 1:1 (vol:vol) distilled water: acetone. The test solution is prepared at the day of use.
B.3 Cowpea aphid (Aphis craccivora):
For evaluating control of Cowpea aphid through contact or systemic means the test unit consists of 24-well-microtiter plates containing broad bean leaf disks.
The compounds are formulated using a solution containing 75% v/v water and 25% v/v DMSO. Different concentrations of formulated compounds are sprayed onto the leaf disks at 2.5 μl, using a custom built micro atomizer, at two replications.
After application, the leaf disks are air-dried and 5-8 adult aphids placed on the leaf disks inside the microtiter plate wells. The aphids are then allowed to suck on the treated leaf disks and incubated at about 23±1° C. and about 50±5% relative humidity for 5 days. Aphid mortality and fecundity is then visually assessed.

[2] = tested on: Rice green leafhopper (Nephotettix virescens); assay: B.1 Rice green leafhopper, sprayed rice seedlings; conditions: 72 h
Protocol: B.1 Rice Green Leafhopper (Nephotettix virescens):
(§1) Rice seedlings are cleaned and washed 24 hours before spraying. The active compounds are formulated in 50:50 acetone:water (vol:vol), and 0.1% vol/vol surfactant (EL 620) is added. Potted rice seedlings are sprayed with 5 ml test solution, air dried, placed in cages and inoculated with 10 adults. Treated rice plants are kept at about 28-29° C. and relative humidity of about 50-60%. Percent mortality is recorded after 72 hours.

Chilo suppressalis [3] = assay: B.3a Rice stem borer vial bioassay; conditions: 72 h
Protocol: Field-collected rice straws were washed with tap water and cut for a certain of length. Straws were air dried before placing individually in vials (=replicate, 3×). About 125 μl test solution was sprayed per vial. Treated rice straws in vials were air dried under the laboratory hood. After air-drying, each straw was inoculated with 10 newly-emerged (0-day old) stem borer larvae. Vials were then covered. Set-up was kept in a holding room maintained at 27° C. and 65% RH for three days. At 3 days after inoculation, rice straws were manually dissected for larval mortality assessment. The data (Table C) show activity against two species of rice stem borers.

[4] = tested on: Rice brown plant hopper (Nilaparvata lugens); assay: B.2 Rice brown plant hopper, sprayed rice seedlings; conditions: 72 h
Protocol: B.2 Rice Brown Plant Hopper (Nilaparvata lugens):
as §1, with “(vol:vol)” for “(vol:vol),”

[5] = tested on: Thrips (Dichromothrips corbetti); assay: B.4 Thrips floral-immersion test; conditions: 72 h
Protocol: B.4 Thrips (Dichromothrips Corbetti):
Dichromothrips corbetti adults used for bioassay are obtained from a colony maintained continuously under laboratory conditions. For testing purposes, the test compound is diluted in a 1:1 mixture of acetone:water (vol:vol), plus 0.01% vol/vol Alkamuls® EL 620 surfactant.
Thrips potency of each compound is evaluated by using a floral-immersion technique. Plastic petri dishes are used as test arenas. All petals of individual, intact orchid flowers are dipped into treatment solution and allowed to dry. Treated flowers are placed into individual petri dishes along with about 20 adult thrips. The petri dishes v then covered with lids. All test arenas are held under continuous light and a temperature of about 28° C. for duration of the assay. After 3 days, the numbers of live thrips are counted on each flower, and along inner walls of each petri dish. The percent mortality is recorded 72 hours after treatment.

Chilo suppressalis [6] = assay: B.3b Rice striped stem borer, foliar spraying
Protocol: All three pots (=replicates) of four to five-week old potted rice per treatment were simultaneously sprayed with 12 mL test solution. After spray application, plants were air dried in the laboratory before inoculation. After air-drying, 5 to 6-day old egg masses of CHILSU were used for inoculation. All stem borer-infested potted rice plants were transferred inside the screenhouse 1 day after inoculation until the final assessment. […] Whole plant damage was assessed before cutting each hill at the basal portion for tiller dissection. Each dissected tiller was inspected looking for dead (if possible) and alive stemborer larvae.

Chilo suppressalis [7] = assay: B.3c Rice striped stem borer, drench application; conditions: Chilo suppressalis neonates, Dose 10 mg, 14 DAT
Text: The test solution was poured onto the soil of each potted rice plant (=replicate) with five tillers each pot. After drench application, treated plants were transferred inside the screenhouse for three days prior to stemborer inoculation inside the laboratory. Three days after drench application, 5 to 6-day old egg masses of CHILSU were used for inoculation. All stemborer-infested potted rice plants were transferred inside the screenhouse 1 day after inoculation until the final assessment. […] Whole plant damage was assessed before cutting each hill at the basal portion for tiller dissection. Each dissected tiller was inspected looking for dead (if possible) and alive stemborer larvae.

[8] = tested on: Greenhouse Whitefly (Trialeurodes vaporariorum); assay: Greenhouse Whitefly, egg plant leaf disk (table 5, mixtures); conditions: solo application Oxazosulfyl, use rate 50 ppm
Protocol: For evaluating control of Greenhouse Whitefly (Trialeurodes vaporariorum) the test unit consisted of 96-well-microtiter plates containing a leaf disk of egg plant leaf disk with white fly eggs. The compounds or mixtures were formulated using a solution containing 75% water and 25% DMSO. Concentrations of formulated compounds or mixtures were sprayed onto the […] at 2.5 μl, using a custom built micro atomizer, at two replications.
(§2) For experimental mixtures in these tests identical volumes of both mixing partners at the desired concentrations respectively, were mixed together.
After application, microtiter plates were incubated at 23±1° C., 65±5% RH for 6 days. Mortality of hatched crawlers was then visually assessed.

[9] = tested on: yellow fever mosquito (Aedes aegypti); conditions: in vivo
Protocol: For evaluating control of yellow fever mosquito (Aedes aegypti) the test unit consisted of 96-well-microtiter plates containing 200 μl of tap water per well and 5-15 freshly hatched A. aegypti larvae.
The compounds or mixtures were formulated using a solution containing 75% water and 25% DMSO. Different concentrations of formulated compounds or mixtures were sprayed onto the insect diet at 2.5 μl, using a custom built micro atomizer, at two replications.
as §2
After application, microtiter plates were incubated at 28±1° C., 80±5% RH for 2 days. Larval mortality was then visually assessed.

[10] = tested on: brown planthopper (Nilaparvata lugens); assay: Test 6 brown planthopper, foliar spray (mixtures); conditions: Table 6.2, after 7 days, solo application Spinetoram, use rate 70 ppm
Protocol: For evaluating control of brown planthopper (Nilaparvata lugens) by foliar spray method. Clean potted rice seedlings with upper leaf portion cut are properly labeled. Placed three potted rice plants per treatment concentration/combination on top of the rotating disc (270 mm) and sprayed with the 12 mL spray solution. Treated plants are allowed to air-dry in the laboratory for about an hour. After air-drying, covered each treated rice plant. Each treated plant was infested with brown planthoppers using a suction vacuum. Plants are maintained at 27° C.±1° C., 50±5% RH and 24 hours light conditions in a holding room. Percent mortality is recorded 7 days after infestation by counting both the dead and alive brown planthoppers on the plants and on the water.

[11] = tested on: vetch aphid (Megoura viciae); assay: Test 1 vetch aphid, leaf disks (mixtures); conditions: Table 1, solo application Spinetoram, use rate 2 ppm
Text: Synergism can be described as an interaction where the combined effect of two or more compounds is greater than the sum of the individual effects of each of the compounds. The presence of a synergistic effect in terms of percent control, between two mixing partners (X and Y) can be calculated using the Colby equation (Colby, S. R., 1967, Calculating Synergistic and Antagonistic Responses in Herbicide Combinations, Weeds, 15, 20-22):
When the observed combined control effect is greater than the expected combined control effect (E), then the combined effect is synergistic.
The analysis of synergism or antagonism between the mixtures or compositions was determined using Colby's equation.
For evaluating control of vetch aphid (Megoura viciae) through contact or systemic means the test unit consisted of 24-well-microtiter plates containing broad bean leaf disks.
The compounds or mixtures were formulated using a solution containing 75% water and 25% DMSO. Concentrations of formulated compounds or mixtures were sprayed onto the leaf disks at 2.5 μl, using a custom built micro atomizer, at two replications. […]
After application, the leaf disks were air-dried and 5-8 adult aphids placed on the leaf disks inside the microtiter plate wells. […] Aphid mortality and fecundity was then visually assessed.

[12] = tested on: boll weevil (Anthonomus grandis); assay: Test 3 boll weevil, insect diet with eggs (mixtures); conditions: Table 3.2, solo application Spinetoram, use rate 4 ppm
Protocol: For evaluating control of boll weevil (Anthonomus grandis) the test unit consisted of 24-well-microtiter plates containing an insect diet and 20-30 A. grandis eggs.
The compounds or mixtures were formulated using a solution containing 75% water and 25% DMSO. Concentrations of formulated compounds or mixtures were sprayed onto the insect diet at 20 μl, using a custom built micro atomizer, at two replications.
as §2
After application, microtiter plates were incubated at 23±1° C., 50±5% RH for 5 days. Egg and larval mortality was then visually assessed.

C[n+]1c2n(c([O-])c(-c3ccccc3)c1=O)C(c1cnc(Cl)s1)CS2 (racemic) [Compound I-1, 3-(2-chlorothiazol-5-yl)-8-methyl-7-oxo-6-phenyl-2,3-dihydrothiazolo[3,2-a]pyrimidin-8-ium-5-olate]
mortality at 1 ppm [1]: 80%
mortality at 1 ppm [2]: 50%
mortality at 300 ppm (Chilo suppressalis [3]): 80%
mortality at 1 ppm [4]: 54%
mortality at 10 ppm [5]: 73%
Feeding damage (%) (Chilo suppressalis [6]; Chilo suppressalis neonates, foliar spraying, Dose 200 ppm, 14 DAT): 15%
mortality at 200 ppm (Chilo suppressalis [6]; Chilo suppressalis, foliar, 336 h): 96%
Feeding damage (%) (Chilo suppressalis [7]): 15%

CCS(=O)(=O)c1cccnc1-c1nc2cc(S(=O)(=O)C(F)(F)F)ccc2o1 [Oxazosulfyl, 2-(3-ethylsulfonyl-2-pyridyl)-5-(trifluoromethylsulfonyl)-1,3-benzoxazole, reference compound]
Average control % [8]: 50%

Cc1cccc2sc3nncn3c12 [Tricyclazol, tricyclazole, reference compound]
Average control % [9]: 50%

spinetoram [reference compound]
Average control % [10]: 62%
Average control % [11]: 50%
Average control % [12]: 0%

Reference: US11578083B2, “Pyrimidinium compounds and their mixtures for combating animal pests” (BASF SE, priority 2017, dated 2023)
